# Laboratory results from patent publication US4179467A, “Dopamine hydroxylase inhibiting 2-amino-cyclopent-1-ene-1-thiocarboxylic acid-disulfides” (Richter Gedeon Vegyeszeti Gyar Rt., priority 1976, dated 1979).
# Like-named read-outs stand apart in the source and are kept apart here.
# Key:
# [1] = test system: serotonine and 5-hydroxy-indolylacetic acid levels of the cerebrum; test: Serotonine and 5-hydroxy-indolylacetic acid levels of the cerebrum (brain) in rats, % of controls; type: in vivo, male Wistar rats; details: for response vs control in vivo at 500 mg/kg: po, p.o.
# Protocol: (§1) The tests were performed on male Wistar rats weighing 150 to 200 g. The dopamine-β-hydroxylase inhibiting effects of the compounds were evaluated by determining the change of noradrenaline, dopamine and adrenaline levels of the cerebrum, heart, spleen and adrenal gland. The serotonine and 5-hydroxy-indolylacetic acid levels of the cerebrum were also determined. The measurements were performed as follows:
# (§2) The animals were decapitated, the cerebrum, heart, spleen and adrenal gland were removed quickly, and the organs were frozen by placing them on a metal sheet cooled with dry ice. The frozen organs were stored for a maximum of one night at -20° C.
# In a further test series the serotonine and 5-hydroxy-indolylacetic acid contents were also determined, in addition to the determination of the noradrenaline and dopamine content, from the same sample. In this instance the brains were homogenized in 10 ml of 75% ethanol, 0.2 ml of EDTA-Na2 and 5% of ascorbic acid were added to the homogenized mixtures, and the homogenized mixtures were maintained at -20° C. overnight. The mixtures were centrifuged as described above, and 5.0 ml samples of the supernatant were removed. The samples were diluted with equal volumes of distilled water, and poured onto ion exchange columns of 0.5×1.5 cm dimensions, filled with buffered Amberlite CG-30 (200 to 400 mesh). The columns were washed with 5 ml of distilled water followed by 1.0 ml of 0.2 N hydrochloric acid, and the first effluent and the aqueous wash were collected for the determination of 5-hydroxy-indolylacetic acid. Elution was continued with a further 1.2 ml quantity of 0.2 N hydrochloric acid in order to remove noradrenaline, dopamine and serotonine. Samples of 0.3 ml were used for the determinations.
# Noradrenaline and dopamine were determined by the method of Shellenberger, modified as described above, whereas serotonine was determined by the method of Curzon et al. (Brit. J. Pharmacol. 39, 653 (1970)). The basic method was modified as follows: A 0.5% solution of ortho-phthal(di)aldehyde in absolute ethanol was diluted with […] hydrochloric acid to 50-fold of its original volume, and 0.6 ml of the resulting 0.01% ortho-phthal(di)aldehyde solution were added immediately to 0.5 ml of the serotonine-containing sample. The sample was placed in a hot water bath for 10 minutes, thereafter cooled with tap water, and the flourescence was recorded at wavelengths of 360 nm (excitation) and 490 nm (emission).
# 5-Hydroxy-indolylacetic acid was determined from the mixture of the first effluent and the aqueous wash. 10 ml of distilled water and 0.2 ml of concentrated hydrochloric acid were added to the mixture, and the sample was poured onto a 0.8×4.0 cm column filled with Sephadex G-10. The column was washed with 15 ml of 0.1 N hydrochloric acid followed by 1.8 to 2.0 ml of 0.02 N aqueous ammonia, and then 5-hydroxy-indolylacetic acid was eluted with further 2.0 ml of the aqueous ammonia. 0.5 ml samples were used in the measurements, and the determination was performed according to the method of Korf et al. (Biochem. Pharmacol. 20, 659 (1971)).
# (§3) In the tests disulfiram, 2,2-dipyridyl, bis(1-methyl-4-homopiperazinyl-thiocarbonyl)-disulfide, sodium diethyldithiocarbamate and N-phenyl-N'-(2-thiazolyl)-thiourea were used as reference substances. The values indicated in Table 1 are the percentages in relation to the amine levels of the controls measured in the same tests (±standard error). The statistical calculations were performed on a TPA/i type computer, using Student's t test.
# [2] = test system: dopamine-β-hydroxylase; test: Noradrenaline level of heart in rats, % of controls; type: in vivo, male Wistar rats; details: rat, 4 hours
# Protocol: (§4) The dopamine-β-hydroxylase inhibiting effects of the new compounds according to the invention were examined by the following tests:
# as §1, §2
# (§5) The organs were weighed in the frozen state and then homogenized in 5.0 ml of 0.4 N perchloric acid containing 0.05% of EDTA-Naa and 0.1% of Na2 S2 O5. The homogenized mixtures were centrifuged as described above for the treatment of adrenal gland, the supernatants were decanted, and the pH was adjusted to 8.0±0.1 with a 0.1 molar tris buffer containing 20 g/l of NaOH and 25 g/l of EDTA-Na2. 100 mg of prepared Al2 O3 (Anton et al.: J. Pharm. Ther. 138, 360 (1962)) were added to the samples, and the mixtures were shaken mechanically for 20 minutes. Thereafter the Al2 O3 was washed with 2×10 ml of distilled water, and noradrenaline was eluted with 1.0 ml of 0.05 N perchloric acid. 0.5 ml samples of the eluate were used for the determination of noradrenaline. Noradrenaline was determined according to the method of Shellenberger et al. (Anal. Biochem. 39, 356 (1971)), with the following modifications of the basic procedure: 0.5 ml of 0.1 molar Na-K-phosphate buffer, containing 9 g/l of EDTA-Na2, were added to 0.5 ml of the eluate, and the catecholamines (noradrenaline in the examination of heart and spleen and noradrenaline and dopamine in the examination of the cerebrum) were oxidized with 0.1 ml of a 0.1 N iodine solution in 5% potassium iodide. After exactly 2 minutes, oxidation was stopped by adding 0.25 ml of a 2.5% sodium sulfite solution in 4.4 N aqueous sodium hydroxide to the mixture. 2 minutes after the introduction of the alkaline sulfite solution, 0.2 ml of concentrated acetic acid was added to the samples, whereupon the pH decreased to 4.4 to 4.5. Thereafter the samples were placed for 5 minutes in a drying oven heated to 100° C., and then the samples were cooled with ice water. The fluorescency of noradrenaline was measured with an OPTON spectrophotometer at wavelengths of 380 nm (excitation) and 490 nm (emission).
# as §3
# [3] = in vivo; details: mouse, in vivo, mice
# [4] = test system: dopamine-β-hydroxylase; test: Noradrenaline and dopamine levels of the cerebrum (brain) in rats, % of controls; type: in vivo, male Wistar rats; details: rat, 4 hours
# Protocol: as §4, §1, §2, §5
# The brains were homogenized in 10 parts by volume of 0.4 N perchloric acid. The homogenized mixture was stored at -20° C. overnight; thereafter it was thawed and centrifuged as described above. A sample of the homogenized mixture corresponding to 0.5 g of brain was removed, the pH of the sample was adjusted to 8.0±0.1 with 0.1 molar tris-buffer of the above composition, and the sample was processed as described above for the determination of the noradrenaline content of heart and spleen, with the difference that 1.5 ml of 0.05 N perchloric acid was used as the eluting agent. 0.5 ml of the eluate was used to determine the noradrenaline and dopamine contents. The measurement was performed as described above, with the difference that samples of 0.5 ml were applied for the recording of the flourescence of noradrenaline. The residue was placed for 50 minutes into a drying oven heated to 100° C., thereafter the sample was cooled with ice water, and the fluorescence of dopamine was recorded at wavelengths of 325 nm (excitation) and 380 nm (emission).
# In a further test series the serotonine and 5-hydroxy-indolylacetic acid contents were also determined, in addition to the determination of the noradrenaline and dopamine content, from the same sample. […]
# [5] = test system: dopamine-β-hydroxylase; test: Adrenaline level of adrenal gland in rats, % of controls; type: in vivo, male Wistar rats; details: rat, 4 hours
# Protocol: as §4, §1, §2
# The adrenal glands were freed from fat and homogenized in 3.0 ml of ice-cold 0.4 N perchloric acid. The homogenized mixtures were centrifuged for 10 minutes at 0° C. with a speed of 3200 r.p.m. using a Janetzky K-70 type centrifuge. 0.05 ml samples were taken from the supernatant, and the adrenaline level was determined directly by the method of Laverty et al. (Anal. Biochem. 22, 269 (1968)).
# as §3
# [6] = test system: dopamine-β-hydroxylase; test: Noradrenaline level of spleen in rats, % of controls; type: in vivo, male Wistar rats; details: rat, i.p., 4 hours
# Protocol: as §4
# The tests were performed on male Wistar rats weighing 150 to 200 g. The dopamine-β-hydroxylase inhibiting effects of the compounds were evaluated by determining the change of noradrenaline, dopamine and adrenaline levels of the cerebrum, heart, spleen and adrenal gland. The serotonine and 5-hydroxy-indolylacetic acid levels of the cerebrum were also determined. The measurements were performed as follows: […]
# The organs were weighed in the frozen state and then homogenized in 5.0 ml of 0.4 N perchloric acid containing 0.05% of EDTA-Naa and 0.1% of Na2 S2 O5. […] Noradrenaline was determined according to the method of Shellenberger et al. (Anal. Biochem. 39, 356 (1971)), with the following modifications of the basic procedure: 0.5 ml of 0.1 molar Na-K-phosphate buffer, containing 9 g/l of EDTA-Na2, were added to 0.5 ml of the eluate, and the catecholamines (noradrenaline in the examination of heart and spleen and noradrenaline and dopamine in the examination of the cerebrum) were oxidized with 0.1 ml of a 0.1 N iodine solution in 5% potassium iodide. […] The fluorescency of noradrenaline was measured with an OPTON spectrophotometer at wavelengths of 380 nm (excitation) and 490 nm (emission). […]
# [7] = test system: dopamine-β-hydroxylase; details: in vitro conditions, literature; cited from earlier work
# [8] = test system: mice; test: in vivo
compound,measurement,setting,value
"COCCNC1=C(C(=S)SSC(=S)C2=C(NCCOC)CCC2)CCC1 [M-4, 2-(N-methoxyethyl)-amino-cyclopent-1-ene-thiocarboxylic acid disulfide]",response vs control in vivo at 100 mg/kg,"[1]; ip, rat, i.p., 4 hours, read-out: Brain 5-HIAA level (percentages in relation to the controls)",108 ± 9.6%
same,response vs control in vivo at 100 mg/kg,"[1]; ip, rat, i.p., 4 hours, read-out: Brain SE level (percentages in relation to the controls)",113 ± 2.8%
same,response vs control in vivo at 200 mg/kg,"[1]; ip, rat, i.p., 200 mg/kg, 4 hours, read-out: Brain 5-HIAA level (percentages in relation to the controls)",151%
same,response vs control in vivo at 200 mg/kg,"[1]; ip, rat, i.p., 200 mg/kg, 4 hours, read-out: Brain SE level (percentages in relation to the controls)",113 ± 5.6%
same,response vs control in vivo at 200 mg/kg,"[1]; ip, rat, i.p., 200 mg/kg, 8 hours, read-out: Brain 5-HIAA level (percentages in relation to the controls)",161%
same,response vs control in vivo at 200 mg/kg,"[1]; ip, rat, i.p., 200 mg/kg, 8 hours, read-out: Brain SE level (percentages in relation to the controls)",106 ± 7.5%
same,response vs control in vivo at 500 mg/kg,"[1]; rat, 4 hours, read-out: Brain 5-HIAA level (percentages in relation to the controls)",95.4 ± 6%
same,response vs control in vivo at 500 mg/kg,"[1]; rat, 4 hours, read-out: Brain SE level (percentages in relation to the controls)",103 ± 5.3%
same,response vs control in vivo at 500 mg/kg,"[1]; rat, 8 hours, read-out: Brain 5-HIAA level (percentages in relation to the controls)",106 ± 4.9%
same,response vs control in vivo at 500 mg/kg,"[1]; rat, 8 hours, read-out: Brain SE level (percentages in relation to the controls)",90.9 ± 6.7%
same,Heart NA level (percentages in relation to the controls),"[2]; p.o., 500 mg/kg",86.4 ± 10.1%
same,LD50,[3]; ip,> 1500 mg/kg
"c1ccc(-c2ccccn2)nc1 [2,2-D, 2,2-dipyridyl]",response vs control in vivo at 75 mg/kg,"[1]; Rattus norvegicus, ip, 4 h, read-out: Brain SE level (percentages in relation to the controls)",100%
same,Brain DA level (percentages in relation to the controls),"[4]; i.p., 37.5 mg/kg",116%
same,Brain NA level (percentages in relation to the controls),"[4]; i.p., 37.5 mg/kg",79.5%
same,Brain DA level (percentages in relation to the controls),"[4]; i.p., 75 mg/kg",95%
same,Brain NA level (percentages in relation to the controls),"[4]; i.p., 75 mg/kg",41.2%
same,Adrenal gland adrenaline level (% of controls),"[5]; i.p., 37.5 mg/kg",80%
same,Adrenal gland adrenaline level (% of controls),"[5]; i.p., 75 mg/kg",63%
same,Spleen NA level (percentages in relation to the controls),[6]; 37.5 mg/kg,100%
same,Heart NA level (percentages in relation to the controls),"[2]; i.p., 37.5 mg/kg",104%
same,Heart NA level (percentages in relation to the controls),"[2]; i.p., 75 mg/kg",58%
same,"dopamine-β-hydroxylase inhibition in vitro, in words",[7],effective under in vitro conditions
same,LD50,[3]; ip,280 mg/kg
"CCCCNC1=C(C([O-])=S)CCC1.CCCCNC1=C(C([O-])=S)CCC1.[Zn+2] [M-3, 2-(N-butyl)-amino-cyclopent-1-ene-thiocarboxylic acid (zinc salt)]",Brain DA level (percentages in relation to the controls),"[4]; i.p., 50 mg/kg",112.2 ± 12.0%
same,Brain NA level (percentages in relation to the controls),"[4]; i.p., 50 mg/kg",85.0 ±9.1%
same,Brain DA level (percentages in relation to the controls),"[4]; i.p., 100 mg/kg",121.3 ± 6.1%
same,Brain NA level (percentages in relation to the controls),"[4]; i.p., 100 mg/kg",73.5 ± 3.2%
same,Brain DA level (percentages in relation to the controls),"[4]; p.o., 500 mg/kg",99.2 ±5.0%
same,Brain NA level (percentages in relation to the controls),"[4]; p.o., 500 mg/kg",98.9 ±2.5%
same,Adrenal gland adrenaline level (% of controls),"[5]; i.p., 50 mg/kg",66.3%
same,Adrenal gland adrenaline level (% of controls),"[5]; i.p., 100 mg/kg",60.5 ± 3.6%
same,Adrenal gland adrenaline level (% of controls),"[5]; p.o., 500 mg/kg",100.3 ±8.3%
same,Heart NA level (percentages in relation to the controls),"[2]; i.p., 50 mg/kg",84.5±4.1%
same,Heart NA level (percentages in relation to the controls),"[2]; i.p., 100 mg/kg",91.5 ± 8.1%
same,Heart NA level (percentages in relation to the controls),"[2]; p.o., 500 mg/kg",108.8 ±3.2%
same,LD50,[8]; i.p.,~ 450 mg/kg
Chlorofusaric acid,LD50,[8]; p.o.,470 ± 85 mg/kg
"S=C(Nc1ccccc1)Nc1nccs1 [U-14624, N-phenyl-N'-(2-thiazolyl)-thiourea]",Brain 5-HIAA level (percentages in relation to the controls),"[1]; rat, i.p., 200 mg/kg, 4 hours",175%
same,Brain SE level (percentages in relation to the controls),"[1]; rat, i.p., 200 mg/kg, 4 hours",137%
same,Brain DA level (percentages in relation to the controls),"[4]; i.p., 200 mg/kg",121%
same,Brain NA level (percentages in relation to the controls),"[4]; i.p., 200 mg/kg",31.6%
same,Adrenal gland adrenaline level (% of controls),"[5]; i.p., 200 mg/kg",72%
same,Spleen NA level (percentages in relation to the controls),[6]; 200 mg/kg,111%
same,Heart NA level (percentages in relation to the controls),"[2]; i.p., 200 mg/kg",106%
same,LD50,[3]; ip,~680 mg/kg
same,LD50,[3]; po,> 1000 mg/kg
